Data reported in patent US4231946A, “14,15-Methylene derivatives of the estrane series and methods for preparing same” (VEB Jenapharm, priority 1978, dated 1980).
Read-outs that look alike come from different tables or passages of the source.

Legend:
[1] = system: ovariectomized mice; assay: Allen-Doisy test in ovariectomized mice (estrogenic properties); type: in vivo, mouse
Text: STS 593 was weaker than ethynylestradiol by a factor of 9 in its estrogenic properties as shown by the Allen-Doisy test in ovariectomized mice. The compound was only 7% as active as the standard mestranol in producing a uterine response in infantile rats (Table 3), whereas the antiestrogenic properties exceeded those of clomiphene citrate by a factor of 1.4.

[2] = system: inseminated rats; assay: Antinidation / Nidation Inhibition Test in inseminated rats treated on the 1st day of gestation; type: in vivo, rat; conditions: for ED50 / ED5 / ED95: Rattus norvegicus, po
Text: The favorable biological properties of the named compounds of the process according to the invention are to be further illustrated and described in the example of 3-methoxy-14β-15β-methylene-estra-1,3,5(10)-triene-17β-ol (test designation STS 593).
Gestation and nidation inhibition expressed in % were used as parameters for antifertility effects. GHE1 (gestation inhibitory effect) and IHE1 (nidation inhibitory effect) were related to the inhibition of the total of gestations or nidations, GHE2 and IHE2 were related to the inhibition of normal gestations or nidations within each group. […] GHE1, GHE2, IHE1 and IHE2 were calculated using the following formulae: [formula] n=number of females inseminated in each group v=test group
k=control group (sesame oil)
x=number of all gestations (GHE1) and of normal gestations (GHE2) p. group, respectively
f=average number (x) of all implantations (IHE1) and of normal implantations (IHE2) p. female inseminated within a group, respectively.
The comparison of the relative incidence of gestations was performed by the Ryan test, the comparison of the number of implantations by the Dunn test.
For GHE1 and GHE2 the ED (effective doses) for the HE (inhibitory effect) 0%, 50%, and 95% as far as possible were determined by means of the probit analysis. The ED50 for IHE1 and IHE2 were determined graphically.

[3] = 1st trial 1975, 0.1 mg/kg p.o., n=12
[4] = 1st trial 1975, 0.3 mg/kg p.o., n=12
[5] = 1st trial 1975, 0.9 mg/kg p.o., n=12
[6] = 2nd trial 1978, 0.08 mg/kg p.o., n=10
[7] = 2nd trial 1978, 0.16 mg/kg p.o., n=10
[8] = 2nd trial 1978, 0.32 mg/kg p.o., n=10
[9] = 2nd trial 1978, 0.64 mg/kg p.o., n=10
[10] = 2nd trial 1978, 1.28 mg/kg p.o., n=10

SMILES: COc1ccc2c(c1)CC[C@@H]1[C@@H]2CC[C@]2(C)[C@@H](O)C[C@H]3C[C@@]312 [STS 593, 3-methoxy-14β,15β-methylene-estra-1,3,5(10)-triene-17β-ol]
- Estrogenic properties: factor weaker than ethynylestradiol [1]: 9 factor
- Female rats pregnant of n, normal [2, 3]: 10
- Female rats pregnant of n, total [2, 3]: 10
- GHE1 [2, 3]: 16.7%
- GHE2 [2, 3]: 16.7%
- IHE1 [2, 3]: 30.0%
- IHE2 [2, 3]: 34.7%
- Implantations per female (-x), normal [2, 3]: 8.2
- Implantations per female (-x), total [2, 3]: 8.8
- Female rats pregnant of n, normal [2, 4]: 5
- Female rats pregnant of n, total [2, 4]: 8
- GHE1 [2, 4]: 33.3%
- GHE2 [2, 4]: 58.3%
- IHE1 [2, 4]: 70.0%
- IHE2 [2, 4]: 72.7%
- Implantations per female (-x), normal [2, 4]: 3.4
- Implantations per female (-x), total [2, 4]: 3.8
- Female rats pregnant of n, normal [2, 5]: 3
- Female rats pregnant of n, total [2, 5]: 6
- GHE1 [2, 5]: 50.0%
- GHE2 [2, 5]: 75.0%
- IHE1 [2, 5]: 86.7%
- IHE2 [2, 5]: 94.7%
- Implantations per female (-x), normal [2, 5]: 0.7
- Implantations per female (-x), total [2, 5]: 1.7
- Female rats pregnant of n, normal [2, 6]: 9
- Female rats pregnant of n, total [2, 6]: 9
- GHE1 [2, 6]: 10%
- GHE2 [2, 6]: 10%
- IHE1 [2, 6]: 18.5%
- IHE2 [2, 6]: 19.2%
- Implantations per female (-x), normal [2, 6]: 10.5
- Implantations per female (-x), total [2, 6]: 10.6
- Female rats pregnant of n, normal [2, 7]: 2
- Female rats pregnant of n, total [2, 7]: 10
- GHE1 [2, 7]: 0%
- GHE2 [2, 7]: 80%
- IHE1 [2, 7]: 32.3%
- IHE2 [2, 7]: 82.3%
- Implantations per female (-x), normal [2, 7]: 2.3
- Implantations per female (-x), total [2, 7]: 8.8
- Female rats pregnant of n, normal [2, 8]: 3
- Female rats pregnant of n, total [2, 8]: 5
- GHE1 [2, 8]: 50%
- GHE2 [2, 8]: 70%
- IHE1 [2, 8]: 74.6%
- IHE2 [2, 8]: 86.1%
- Implantations per female (-x), normal [2, 8]: 1.8
- Implantations per female (-x), total [2, 8]: 3.3
- Female rats pregnant of n, normal [2, 9]: 0
- Female rats pregnant of n, total [2, 9]: 4
- GHE1 [2, 9]: 60%
- GHE2 [2, 9]: 100%
- IHE1 [2, 9]: 87.7%
- IHE2 [2, 9]: 100%
- Implantations per female (-x), normal [2, 9]: 0
- Implantations per female (-x), total [2, 9]: 1.6
- Female rats pregnant of n, normal [2, 10]: 0
- Female rats pregnant of n, total [2, 10]: 2
- GHE1 [2, 10]: 80%
- GHE2 [2, 10]: 100%
- IHE1 [2, 10]: 88.5%
- IHE2 [2, 10]: 100%
- Implantations per female (-x), normal [2, 10]: 0
- Implantations per female (-x), total [2, 10]: 1.5
- ED50 ([2]; according to trial No. 1, read-out: ED50 for IHE1): 0.175 mg/kg
- ED50 ([2]; according to trial No. 1, read-out: ED50 for IHE2): 0.155 mg/kg
- ED50 ([2]; determined graphically, STS 593 from trial No. 2, read-out: ED 50 for IHE1): 0.22 mg/kg
- ED50 ([2]; determined graphically, STS 593 from trial No. 2, read-out: ED 50 for IHE2): 0.112 mg/kg
- ED5 ([2]; probit analysis, STS 593 from trial No. 2, read-out: ED 05 for GHE1): 0.078 mg/kg
- ED5 ([2]; probit analysis, STS 593 from trial No. 2, read-out: ED 05 for GHE2): 0.044 mg/kg
- ED50 ([2]; probit analysis, STS 593 from trial No. 2, read-out: ED 50 for GHE1): 0.474 mg/kg
- ED50 ([2]; probit analysis, STS 593 from trial No. 2, read-out: ED 50 for GHE2): 0.147 mg/kg
- ED95 ([2]; probit analysis, STS 593 from trial No. 2, read-out: ED 95 for GHE1): 2.59 mg/kg
- ED95 ([2]; probit analysis, STS 593 from trial No. 2, read-out: ED 95 for GHE2): 0.454 mg/kg
- Contraceptive activity related to IHE1, compared to ethynylestradiol ([2]; female rat): nearly double the activity of ethynylestradiol
- Contraceptive activity related to IHE1, compared to mestranol ([2]; female rat): in the range of that of mestranol
